In article PMC6287543 (International Journal for Parasitology: Drugs and Drug …, 2018):
Values joined by “and” are separate entries in the source; they are usually repeats but may differ in a detail not shown here. Equal entries are not always repeated. “Also recorded” adds a separate entry of the source.

Columns and labels:
[1] = oral 60 mg/BID over 24 weeks; ref Kim et al., 2017; cited from earlier work
S. mansoni = experiment: Murine model of S. mansoni infection: worm burdens recovered by perfusion; type: in vivo, Schistosoma mansoni; settings: mice; for reduction in female worm burden / reduction in male worm burden: 42 dpi

| Compound | tolerability [1] | efficacy against 21-day-old juvenile parasites (S. mansoni; 100 mg/kg PO QDx4 from 21 dpi, 100 mg/kg) | reduction in female worm burden (S. mansoni; single oral 200 mg/kg) [%] | reduction in male worm burden (S. mansoni; single oral 200 mg/kg) [%] | reduction in female worm burden (S. mansoni; single oral 400 mg/kg) [%] | reduction in male worm burden (S. mansoni; single oral 400 mg/kg, 400 mg/kg) | worm kill, juvenile 21 day-old parasites (S. mansoni; single oral doses) |
| --- | --- | --- | --- | --- | --- | --- | --- |
| Cc1c(-c2cnccn2)ssc1=S [Oltipraz] | well-tolerated |  |  |  |  |  |  |
| O=C(C1CCCCC1)N1CC(=O)N2CCc3ccccc3C2C1 (stereo not shown) [PZQ, praziquantel] |  | ineffective; also recorded: essentially inactive | 97 | 78 | 100 | 100% and 97% | zero kill |
